From patent US20180191012A1, “AQUEOUS […]-BASED REDOX FLOW BATTERIES” (UCHICAGO ARGONNE, LLC, priority 2016, published 2018)

Conditions: 10 mM compound in 0.5 M aqueous NaCl; well-defined, reversible redox waves

Structure (SMILES): c1cc[n+]2c(c1)-c1cccc[n+]1CC2 [A, N,N′-(ethan-1,2-diyl)-2,2′-bipyridinedium dibromide]
- redox potential versus Ag/AgCl: −0.60 V
